In patent US10221177B2 (HYDRA BIOSCIENCES, INC., priority 2014, dated 2019):

Biological target: human TRPA1 (Homo sapiens (Human), UniProt O75762)
Experiment: In vitro inhibition of human TRPA1, whole cell patch configuration
Type: cell-based
Conditions: current activation 10 μM AITC, tested concentrations 320 pM to 3.2 μM, read-out: hTRPA1 IC50
Method in brief: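 Compound antagonism measured from voltage ramps (±100 or ±80 mV, 400 ms, every 4 s from −40 mV), analysed at −80 and 80 mV, or at constant −60 mV. HEPES-buffered NaCl bath, pH 7.4, EGTA or 2 mM Ca2+; temperature set by perfusion, within ±2° C; no junction-potential correction.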

human TRPA1, sequence (O75762 whole entry): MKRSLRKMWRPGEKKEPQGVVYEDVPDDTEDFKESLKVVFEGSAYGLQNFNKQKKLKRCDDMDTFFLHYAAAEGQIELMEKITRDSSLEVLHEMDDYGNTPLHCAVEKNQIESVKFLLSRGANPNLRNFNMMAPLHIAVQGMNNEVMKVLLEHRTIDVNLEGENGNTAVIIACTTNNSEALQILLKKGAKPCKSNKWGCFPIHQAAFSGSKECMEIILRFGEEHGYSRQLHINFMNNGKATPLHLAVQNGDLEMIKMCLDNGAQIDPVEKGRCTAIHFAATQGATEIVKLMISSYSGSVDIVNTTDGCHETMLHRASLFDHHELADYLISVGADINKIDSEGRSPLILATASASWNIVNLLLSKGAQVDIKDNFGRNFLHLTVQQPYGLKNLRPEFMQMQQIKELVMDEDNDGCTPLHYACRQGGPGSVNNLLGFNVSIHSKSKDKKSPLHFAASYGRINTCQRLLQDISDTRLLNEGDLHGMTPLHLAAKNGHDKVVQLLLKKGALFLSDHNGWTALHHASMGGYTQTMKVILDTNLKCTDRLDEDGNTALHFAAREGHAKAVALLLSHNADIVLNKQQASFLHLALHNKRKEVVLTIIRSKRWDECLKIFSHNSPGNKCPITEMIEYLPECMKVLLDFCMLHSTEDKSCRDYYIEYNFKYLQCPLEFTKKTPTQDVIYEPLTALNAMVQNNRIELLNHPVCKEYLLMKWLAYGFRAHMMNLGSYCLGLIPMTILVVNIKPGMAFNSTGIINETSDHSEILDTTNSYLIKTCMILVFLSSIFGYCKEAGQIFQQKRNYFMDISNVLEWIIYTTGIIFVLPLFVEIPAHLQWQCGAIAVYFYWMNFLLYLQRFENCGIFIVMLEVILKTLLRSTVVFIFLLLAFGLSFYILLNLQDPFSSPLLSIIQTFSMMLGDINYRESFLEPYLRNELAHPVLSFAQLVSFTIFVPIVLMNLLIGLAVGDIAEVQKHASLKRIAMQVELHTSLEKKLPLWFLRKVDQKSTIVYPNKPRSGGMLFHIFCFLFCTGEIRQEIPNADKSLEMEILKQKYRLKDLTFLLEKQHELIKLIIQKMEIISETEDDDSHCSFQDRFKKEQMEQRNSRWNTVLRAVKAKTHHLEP

## C[C@@H](C(=O)Nc1cccc(-c2cnc(C(F)(F)F)nc2)n1)n1cnc2c1c(=O)n(CC1COC1)c(=O)n2C [Compound 51, (S)-2-(3-methyl-1-(oxetan-3-ylmethyl)-2,6-dioxo-2,3-dihydro-1H-purin-7(6H)-yl)-N-(6-(2-(trifluoromethyl)pyrimidin-5-yl)pyridin-2-yl)propanamide]
  IC50: > 3200 nM

## CC(C(=O)Nc1ccnc(-c2cnc(N3CC4CC4C3)nc2)n1)n1cnc2c1c(=O)n(CC#N)c(=O)n2C (centres unmarked) [Compound 24, N-(2′-(3-azabicyclo[3.1.0]hexan-3-yl)-2,5′-bipyrimidin-4-yl)-2-(1-(cyanomethyl)-3-methyl-2,6-dioxo-2,3-dihydro-1H-purin-7(6H)-yl)propanamide]
  IC50: 10 nM

## C[C@@H](C(=O)Nc1cccc(-c2cnc(C(F)(F)F)nc2)n1)n1cnc2c1c(=O)n(CC1CCO1)c(=O)n2C (stereo partly drawn) [Compound 88, (2S)-2-(3-methyl-1-(oxetan-2-ylmethyl)-2,6-dioxo-2,3-dihydro-1H-purin-7(6H)-yl)-N-(6-(2-(trifluoromethyl)pyrimidin-5-yl)pyridin-2-yl)propanamide]
  IC50: 894 nM

## CCC(=O)Cn1c(=O)c2c(ncn2CC(=O)Nc2csc(-c3cnc(C)c(C(F)(F)F)c3)n2)n(C)c1=O [Compound 247, 2-(3-methyl-2,6-dioxo-1-(2-oxobutyl)-2,3-dihydro-1H-purin-7(6H)-yl)-N-(2-(6-methyl-5-(trifluoromethyl)pyridin-3-yl)thiazol-4-yl)acetamide]
  IC50: 2 nM

## CCC(=O)Cn1c(=O)c2c(ncn2[C@@H](C)C(=O)Nc2csc(-c3cnc(N(CC)CC)nc3)n2)n(C)c1=O [Compound 38, (S)—N-(2-(2-(diethylamino)pyrimidin-5-yl)thiazol-4-yl)-2-(3-methyl-2,6-dioxo-1-(2-oxobutyl)-2,3-dihydro-1H-purin-7(6H)-yl)propanamide]
  IC50: 3 nM

## C[C@@H](C(=O)Nc1cccc(-c2cnc(C(F)(F)F)nc2)n1)n1cnc2c1c(=O)n(Cc1ccon1)c(=O)n2C [Compound 117, (S)-2-(1-(isoxazol-3-ylmethyl)-3-methyl-2,6-dioxo-2,3-dihydro-1H-purin-7(6H)-yl)-N-(6-(2-(trifluoromethyl)pyrimidin-5-yl)pyridin-2-yl)propanamide]
  IC50: 18 nM

## Cc1cc(Cn2c(=O)c3c(ncn3CC(=O)Nc3ccc(C#N)c(C(F)(F)F)n3)n(C)c2=O)no1 [Compound 201, N-(5-cyano-6-(trifluoromethyl)pyridin-2-yl)-2-(3-methyl-1-((5-methylisoxazol-3-yl)methyl)-2,6-dioxo-2,3-dihydro-1H-purin-7(6H)-yl)acetamide]
  IC50: 309 nM

## Cc1nc(Cn2c(=O)c3c(ncn3[C@@H](C)C(=O)Nc3cncc(-c4cnc(C)c(C(F)(F)F)c4)n3)n(C)c2=O)no1 [Compound 170, (S)-2-(3-methyl-1-((5-methyl-1,2,4-oxadiazol-3-yl)methyl)-2,6-dioxo-2,3-dihydro-1H-purin-7(6H)-yl)-N-(6-(6-methyl-5-(trifluoromethyl)pyridin-3-yl)pyrazin-2-yl)propanamide]
  IC50: 27 nM

## CCC(=O)Cn1c(=O)c2c(ncn2CC(=O)Nc2cccc(-c3cnc(C(F)(F)F)c(C)c3)n2)n(C)c1=O [Compound 226, 2-(3-methyl-2,6-dioxo-1-(2-oxobutyl)-2,3-dihydro-1H-purin-7(6H)-yl)-N-(5′-methyl-6′-(trifluoromethyl)-[2,3′-bipyridin]-6-yl)acetamide]
  IC50: 8 nM

## CC(=O)Cn1c(=O)c2c(ncn2CC(=O)Nc2cccc(-c3cnc(C(F)(F)F)nc3)n2)n(C)c1=O [Compound 185, 2-(3-methyl-2,6-dioxo-1-(2-oxopropyl)-2,3-dihydro-1H-purin-7(6H)-yl)-N-(6-(2-(trifluoromethyl)pyrimidin-5-yl)pyridin-2-yl)acetamide]
  IC50: 45 nM

## CC(=O)Cn1c(=O)c2c(ncn2[C@@H](C)C(=O)Nc2csc(-c3cnc(N4CC5C(C4)C5(F)F)nc3)n2)n(C)c1=O (stereo partly drawn) [Compound 56, (2S)—N-(2-(2-(6,6-difluoro-3-azabicyclo[3.1.0]hexan-3-yl)pyrimidin-5-yl)thiazol-4-yl)-2-(3-methyl-2,6-dioxo-1-(2-oxopropyl)-2,3-dihydro-1H-purin-7(6H)-yl)propanamide]
  IC50: 3 nM

## C[C@@H](C(=O)Nc1csc(-c2ccc(Cl)c(Cl)c2)n1)n1cnc2c1c(=O)n(CC#N)c(=O)n2C [Compound 29, (S)-2-(1-(cyanomethyl)-3-methyl-2,6-dioxo-2,3-dihydro-1H-purin-7(6H)-yl)-N-(2-(3,4-dichlorophenyl)thiazol-4-yl)propanamide]
  IC50: 1 nM

## CC(=O)Cn1c(=O)c2c(ncn2[C@@H](C)C(=O)Nc2ncsc2-c2cnc(C(F)(F)F)nc2)n(C)c1=O [Compound 154, (S)-2-(3-methyl-2,6-dioxo-1-(2-oxopropyl)-2,3-dihydro-1H-purin-7(6H)-yl)-N-(5-(2-(trifluoromethyl)pyrimidin-5-yl)thiazol-4-yl)propanamide]
  IC50: > 3200 nM

## Cc1nc2c(c(=O)n(Cc3ccccn3)c(=O)n2C)n1CC(=O)Nc1cccc(-c2ccc(F)c(F)c2)n1 [Compound 175, N-(6-(3,4-difluorophenyl)pyridin-2-yl)-2-(3,8-dimethyl-2,6-dioxo-1-(pyridin-2-ylmethyl)-2,3-dihydro-1H-purin-7(6H)-yl)acetamide]
  IC50: 54 nM

## Cc1cc(Cn2c(=O)c3c(ncn3[C@@H](C)C(=O)Nc3cccc(-c4cnc(C)c(C)c4)n3)n(C)c2=O)no1 [Compound 127, (S)—N-(5′,6′-dimethyl-[2,3′-bipyridin]-6-yl)-2-(3-methyl-1-((5-methylisoxazol-3-yl)methyl)-2,6-dioxo-2,3-dihydro-1H-purin-7(6H)-yl)propanamide]
  IC50: 25 nM

## CCC(=O)Cn1c(=O)c2c(ncn2[C@@H](C)C(=O)Nc2csc(-c3cnc(N4CC5C(C4)C5(F)F)nc3)n2)n(C)c1=O (stereo partly drawn) [Compound 57, (2S)—N-(2-(2-(6,6-difluoro-3-azabicyclo[3.1.0]hexan-3-yl)pyrimidin-5-yl)thiazol-4-yl)-2-(3-methyl-2,6-dioxo-1-(2-oxobutyl)-2,3-dihydro-1H-purin-7(6H)-yl)propanamide]
  IC50: 2 nM

## C[C@@H](C(=O)Nc1cncc(-c2ccc(N3CC4C(C3)C4(F)F)nc2)n1)n1cnc2c1c(=O)n(CC#N)c(=O)n2C (some centres unmarked) [Compound 77]
  IC50: 2 nM

## Cc1cc(Cn2c(=O)c3c(ncn3[C@@H](C)C(=O)Nc3cncc(-c4cnc(C)c(C(F)(F)F)c4)n3)n(C)c2=O)no1 [Compound 128, (S)-2-(3-methyl-1-((5-methylisoxazol-3-yl)methyl)-2,6-dioxo-2,3-dihydro-1H-purin-7(6H)-yl)-N-(6-(6-methyl-5-(trifluoromethyl)pyridin-3-yl)pyrazin-2-yl)propanamide]
  IC50: 4 nM

## CC(=O)Cn1c(=O)c2c(ncn2CC(=O)Nc2cncc(-c3cnc(C)c(C(F)(F)F)c3)n2)n(C)c1=O [Compound 245, 2-(3-methyl-2,6-dioxo-1-(2-oxopropyl)-2,3-dihydro-1H-purin-7(6H)-yl)-N-(6-(6-methyl-5-(trifluoromethyl)pyridin-3-yl)pyrazin-2-yl)acetamide]
  IC50: 8 nM

## COc1ncc(-c2cccc(NC(=O)[C@H](C)n3cnc4c3c(=O)n(Cc3cc(C)on3)c(=O)n4C)n2)cc1C(F)(F)F [Compound 121, (S)—N-(6′-methoxy-5′-(trifluoromethyl)-[2,3′-bipyridin]-6-yl)-2-(3-methyl-1-((5-methylisoxazol-3-yl)methyl)-2,6-dioxo-2,3-dihydro-1H-purin-7(6H)-yl)propanamide]
  IC50: 1 nM

## Cc1cc(Cn2c(=O)c3c(ncn3CC(=O)Nc3cncc(-c4cnc(C(F)(F)F)c(C)c4)n3)n(C)c2=O)no1 [Compound 229, 2-(3-methyl-1-((5-methylisoxazol-3-yl)methyl)-2,6-dioxo-2,3-dihydro-1H-purin-7(6H)-yl)-N-(6-(5-methyl-6-(trifluoromethyl)pyridin-3-yl)pyrazin-2-yl)acetamide]
  IC50: 9 nM

## COCC(=O)Cn1c(=O)c2c(ncn2[C@@H](C)C(=O)Nc2csc(-c3cnc(N4CC5C(C4)C5(F)F)nc3)n2)n(C)c1=O (stereo partly drawn) [Compound 265, (2S)—N-(2-(2-(6,6-difluoro-3-azabicyclo[3.1.0]hexan-3-yl)pyrimidin-5-yl)thiazol-4-yl)-2-(1-(3-methoxy-2-oxopropyl)-3-methyl-2,6-dioxo-2,3-dihydro-1H-purin-7(6H)-yl)propanamide]
  IC50: 3 nM

## Cc1cc(Cn2c(=O)c3c(ncn3[C@@H](C)C(=O)Nc3ccnc(-c4cnc(C)c(C(F)(F)F)c4)n3)n(C)c2=O)no1 [Compound 110, (S)-2-(3-methyl-1-((5-methylisoxazol-3-yl)methyl)-2,6-dioxo-2,3-dihydro-1H-purin-7(6H)-yl)-N-(2-(6-methyl-5-(trifluoromethyl)pyridin-3-yl)pyrimidin-4-yl)propanamide]
  IC50: 1 nM

## CC(O)Cn1c(=O)c2c(ncn2CC(=O)Nc2cccc(-c3cnc(N4CCC[C@H]4C(F)(F)F)nc3)n2)n(C)c1=O (stereo partly drawn) [Compound 184, 2-(1-(2-hydroxypropyl)-3-methyl-2,6-dioxo-1,2,3,6-tetrahydropurin-7-yl)-N-(6-(2-((S)-2-(trifluoromethyl)pyrrolidin-1-yl)pyrimidin-5-yl)pyridin-2-yl)acetamide]
  IC50: 310 nM

## CCN(CC)c1ncc(-c2nc(NC(=O)[C@H](C)n3cnc4c3c(=O)n(Cc3cc(C)on3)c(=O)n4C)cs2)cn1 [Compound 36, (S)—N-(2-(2-(diethylamino)pyrimidin-5-yl)thiazol-4-yl)-2-(3-methyl-1-((5-methylisoxazol-3-yl)methyl)-2,6-dioxo-2,3-dihydro-1H-purin-7(6H)-yl)propanamide]
  IC50: 2 nM

## CNC(=O)Cn1c(=O)c2c(ncn2[C@@H](C)C(=O)Nc2csc(-c3cnc(N4CC5CC5C4)nc3)n2)n(C)c1=O (stereo partly drawn) [Compound 71, (2S)—N-(2-(2-(3-azabicyclo[3.1.0]hexan-3-yl)pyrimidin-5-yl)thiazol-4-yl)-2-(3-methyl-1-(2-(methylamino)-2-oxoethyl)-2,6-dioxo-2,3-dihydro-1H-purin-7(6H)-yl)propanamide]
  IC50: 44 nM
